Where no end group is shown, it is not given here.
Tested on: 129SV/colVII homo mice (epidermolysis bullosa model mice)
Assay: Forelimb finger adhesion in epidermolysis bullosa model mice
Assay type: in vivo
Settings: from the start of treatment to Week 8

Which “body weight compared with the vehicle group” value does the source give for “MGKGDPKKPRGKMSSYAFFVQTCREEHKKKHPDASVNFSEFSKK [HMGB1 peptide (1-44)]” here?
The value was “no significant difference between the groups”.
